In PubChem BioAssay AID220 (DTP/NCI, 2004) one finds T/C data, which are given here for 19 compounds.

Several values for one entry are separate records, joined by “and”; a condition that tells them apart may be missing. Identical values can stand only once. Inconclusive results are not listed.

This test deals with CD8F1 mice, subcutaneous mammary adenocarcinoma, T/C%. In words: NCI In Vivo Anticancer Drug Screen. Data for tumor model Mammary Adenocarcinoma CD8F1 (subcutaneous) in CD8F1. To be noted: higher = larger tumour. The procedure, abridged: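 Compound-treated versus vehicle-treated mice with transplantable tumors; survival or tumor size compared as T/C.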
Setting [1] is: endpoint: median tumor weight (est.), dose: 50.0 mg/kg/injection, schedule: Q07DX005 (ip), vehicle: saline with Tween-80.
Where [2] appears, read: endpoint: median tumor weight (est.), dose: 12.5 mg/kg/injection, schedule: Q07DX005 (ip), vehicle: Klucel (hydroxypropylcellulose) (HPC).
Where [3] appears, read: endpoint: median tumor weight (est.), dose: 25.0 mg/kg/injection, schedule: Q07DX005 (ip), vehicle: Klucel (hydroxypropylcellulose) (HPC).
Where [4] appears, read: endpoint: median tumor weight (est.), dose: 50.0 mg/kg/injection, schedule: Q07DX005 (ip), vehicle: Klucel (hydroxypropylcellulose) (HPC).
Where [5] appears, read: endpoint: median tumor weight (est.), dose: 100.0 mg/kg/injection, schedule: Q07DX005 (ip), vehicle: Klucel (hydroxypropylcellulose) (HPC).
Setting [6] is: endpoint: median tumor weight change, dose: 62.5 mg/kg/injection, schedule: Q01DX001 (ip), vehicle: saline with Tween-80.
Where [7] appears, read: endpoint: median tumor weight change, dose: 125.0 mg/kg/injection, schedule: Q01DX001 (ip), vehicle: saline with Tween-80.

Regarding `CC(=O)OC(C)C1C2=C(C(=O)CC1(C)O)C(=O)c1c(ccc(-c3ccc4c(c3O)C(=O)C3=C(C4=O)C(C(C)OC(C)=O)C(C)(O)CC3=O)c1O)C2=O` (stereo not given), the T/C runs as follows: (endpoint: median tumor weight change, dose: 3.75 mg/kg/injection, schedule: Q01DX001 (ip), vehicle: saline with Tween-80) 105 % of control; (endpoint: median tumor weight change, dose: 7.5 mg/kg/injection, schedule: Q01DX001 (ip), vehicle: saline with Tween-80) 42 % of control; (endpoint: median tumor weight change, dose: 15.0 mg/kg/injection, schedule: Q01DX001 (ip), vehicle: saline with Tween-80) 88 % of control; (endpoint: median tumor weight change, dose: 30.0 mg/kg/injection, schedule: Q01DX001 (ip), vehicle: saline with Tween-80) 83 % of control.
On to `c1cc(-c2cc3ccc(C4=NCCN4)cc3[nH]2)ccc1C1=NCCN1`, for which the T/C runs as follows: (endpoint: median tumor weight (est.), dose: 6.25 mg/kg/injection, schedule: Q07DX005 (ip), vehicle: suspension in saline) 103 % of control; (endpoint: median tumor weight (est.), dose: 12.5 mg/kg/injection, schedule: Q07DX005 (ip), vehicle: suspension in saline) 60 % of control; (endpoint: median tumor weight (est.), dose: 25.0 mg/kg/injection, schedule: Q07DX005 (ip), vehicle: saline) 45 % of control; (endpoint: median tumor weight (est.), dose: 25.0 mg/kg/injection, schedule: Q07DX005 (ip), vehicle: suspension in saline) 164 % of control; (endpoint: median tumor weight change, dose: 62.0 mg/kg/injection, schedule: Q01DX001 (ip), vehicle: suspension in saline) 99 % of control.
With `BrCC[Se]c1ccccc1`, the T/C reads like this: (endpoint: median tumor weight (est.), dose: 6.25 mg/kg/injection, schedule: Q07DX005 (ip), vehicle: saline with Tween-80) 78 % of control; (endpoint: median tumor weight (est.), dose: 12.5 mg/kg/injection, schedule: Q07DX005 (ip), vehicle: saline with Tween-80) 104 % of control; (endpoint: median tumor weight (est.), dose: 25.0 mg/kg/injection, schedule: Q07DX005 (ip), vehicle: saline with Tween-80) 80 % of control; under setting [1], 152 % of control.
Regarding `O=C1C(=O)c2ccccc2C(O)=C1CC=C(Cl)Cl`, the T/C (endpoint: median tumor weight (est.), dose: 6.25 mg/kg/injection, schedule: Q07DX005 (ip), vehicle: Klucel (hydroxypropylcellulose) (HPC)) is 112 % of control; the T/C under setting [2] is 52 % of control; the T/C under setting [3] was 99 % of control; the T/C under setting [4] is 93 % of control; the T/C under setting [5] was 61 % of control.
On to `O=C(N/N=C\c1cc(Br)cc(Br)c1O)N/N=C/c1cc(Br)cc(Br)c1O`, for which the T/C is, setting by setting: under setting [1], 60 % of control; (endpoint: median tumor weight (est.), dose: 200.0 mg/kg/injection, schedule: Q07DX005 (ip), vehicle: saline with Tween-80) 100 % of control; (endpoint: median tumor weight (est.), dose: 400.0 mg/kg/injection, schedule: Q07DX005 (ip), vehicle: saline with Tween-80) 391 % of control.
In the case of `O=C(O)C1(C(=O)O)CCC1.[NH2-].[NH2-].[Pt+2]`, the T/C (endpoint: median tumor weight change, dose: 6.25 mg/kg/injection, schedule: Q01DX001 (ip), vehicle: dextrose) was 98 % of control; the T/C (endpoint: median tumor weight change, dose: 12.5 mg/kg/injection, schedule: Q01DX001 (ip), vehicle: dextrose) was 80 % of control; the T/C (endpoint: median tumor weight change, dose: 25.0 mg/kg/injection, schedule: Q01DX001 (ip), vehicle: dextrose) is 52 % of control.
On to `CCc1nc(N)nc(N)c1-c1ccc(Cl)c(N=[N+]=[N-])c1`, for which the T/C runs as follows: under setting [6], 57 % of control; under setting [7], 78 % of control; (endpoint: median tumor weight change, dose: 2000.0 mg/kg/injection, schedule: Q01DX001 (ip), vehicle: saline with Tween-80) 24 % of control.
Turning to `CC(C)CC(NC(=O)CF)C(=O)O` (stereo not given), the T/C is 81 % of control (endpoint: median tumor weight (est.), dose: 0.62 mg/kg/injection, schedule: Q07DX005 (ip), vehicle: saline); 39 % of control (endpoint: median tumor weight (est.), dose: 2.5 mg/kg/injection, schedule: Q07DX005 (ip), vehicle: saline); 99 % of control (endpoint: median tumor weight (est.), dose: 5.0 mg/kg/injection, schedule: Q07DX005 (ip), vehicle: saline); 41 % of control (endpoint: median tumor weight (est.), dose: 10.0 mg/kg/injection, schedule: Q07DX005 (ip), vehicle: saline).
For `CN(Cc1cnc2nc(N)nc(N)c2n1)c1c(Cl)cc(C(=O)NC(CCC(=O)O)C(=O)O)cc1Cl` (stereo not given), the T/C under setting [3] was 72 % of control and 82 % of control; the T/C under setting [4] is 53 % of control and 65 % of control.
In the case of `O=C(N[C@H](CO)[C@H](O)c1ccc([N+](=O)[O-])cc1)C(Cl)Cl`, the T/C reads like this: under setting [6], 102 % of control; under setting [7], 91 % of control; (endpoint: median tumor weight change, dose: 250.0 mg/kg/injection, schedule: Q01DX001 (ip), vehicle: saline with Tween-80) 92 % of control; (endpoint: median tumor weight change, dose: 500.0 mg/kg/injection, schedule: Q01DX001 (ip), vehicle: saline with Tween-80) 73 % of control; (endpoint: median tumor weight change, dose: 1000.0 mg/kg/injection, schedule: Q01DX001 (ip), vehicle: saline with Tween-80) 98 % of control.
As to `CCC(=O)N(C)[C@@H](C)C(=O)O[C@H]1CC(=O)N(C)c2cc(cc(OC)c2Cl)C/C(C)=C/C=C[C@@H](OC)[C@@]2(O)C[C@H](OC(=O)N2)[C@@H](C)[C@@H]2O[C@@]12C`, the T/C was 210 % of control (endpoint: median tumor weight (est.), dose: 7.5 micrograms/kg/injection, schedule: Q07DX005 (ip), vehicle: saline + alcohol); 112 % of control (endpoint: median tumor weight (est.), dose: 15.0 micrograms/kg/injection, schedule: Q07DX005 (ip), vehicle: saline + alcohol); 84 % of control (endpoint: median tumor weight (est.), dose: 30.0 micrograms/kg/injection, schedule: Q07DX005 (ip), vehicle: saline + alcohol); 98 % of control (endpoint: median tumor weight (est.), dose: 60.0 micrograms/kg/injection, schedule: Q07DX005 (ip), vehicle: saline + alcohol).
With `CC1C=NNC1=O` (stereo not given), the T/C was 20 % of control under setting [3]; 187 % of control under setting [4]; 234 % of control under setting [5]; 182 % of control (endpoint: median tumor weight (est.), dose: 200.0 mg/kg/injection, schedule: Q07DX005 (ip), vehicle: Klucel (hydroxypropylcellulose) (HPC)); 23 % of control (endpoint: median tumor weight (est.), dose: 400.0 mg/kg/injection, schedule: Q07DX005 (ip), vehicle: Klucel (hydroxypropylcellulose) (HPC)).
With `CC(=O)Oc1[nH]c(=O)c2cccc3c2c1CCC3`, the T/C is 155 % of control (endpoint: median tumor weight change, dose: 450.0 mg/kg/injection, schedule: Q01DX001 (ip), vehicle: saline with Tween-80) and 99 % of control (endpoint: median tumor weight change, dose: 1800.0 mg/kg/injection, schedule: Q01DX001 (ip), vehicle: saline with Tween-80).
As to `C[N+](C)(C)c1cc2c(nn1)Nc1ccccc1S2`, the T/C was 86 % of control under setting [2], 106 % of control under setting [3], 107 % of control under setting [4] and 116 % of control under setting [5].
On to `O=C/C(Cl)=C(/Cl)C(=O)O`, for which the T/C is, setting by setting: (endpoint: median tumor weight (est.), dose: 2.5 mg/kg/injection, schedule: Q07DX005 (ip), vehicle: saline with Tween-80) 190 % of control; (endpoint: median tumor weight (est.), dose: 5.0 mg/kg/injection, schedule: Q07DX005 (ip), vehicle: saline with Tween-80) 121 % of control; (endpoint: median tumor weight (est.), dose: 10.0 mg/kg/injection, schedule: Q07DX005 (ip), vehicle: saline with Tween-80) 245 % of control.
Take `O=C1OC(C(O)CO)C(O)=C1O` (stereo not given): the T/C reads like this: (endpoint: median tumor weight (est.), dose: 100.0 mg/kg/injection, schedule: Q07DX005 (ip), vehicle: saline) 70 % of control; (endpoint: median tumor weight (est.), dose: 200.0 mg/kg/injection, schedule: Q07DX005 (ip), vehicle: saline) 28 % of control; (endpoint: median tumor weight (est.), dose: 400.0 mg/kg/injection, schedule: Q07DX005 (ip), vehicle: saline) 110 % of control; (endpoint: median tumor weight (est.), dose: 800.0 mg/kg/injection, schedule: Q07DX005 (ip), vehicle: saline) 61 % of control.
Regarding `CCC[CH2][Hg][Cl]`, the T/C is, setting by setting: (endpoint: median tumor weight (est.), dose: 2.5 mg/kg/injection, schedule: Q07DX005 (ip), vehicle: Klucel (hydroxypropylcellulose) (HPC)) 197 % of control; (endpoint: median tumor weight (est.), dose: 5.0 mg/kg/injection, schedule: Q07DX005 (ip), vehicle: Klucel (hydroxypropylcellulose) (HPC)) 112 % of control; (endpoint: median tumor weight (est.), dose: 20.0 mg/kg/injection, schedule: Q07DX005 (ip), vehicle: Klucel (hydroxypropylcellulose) (HPC)) 110 % of control.
In the case of `O=c1c(O)c(-c2ccc(O)c(O)c2)oc2cc(O)cc(O)c12`, the T/C is, setting by setting: (endpoint: median tumor weight (est.), dose: 25.0 mg/kg/injection, schedule: Q07DX005 (ip), vehicle: other) 52 % of control; (endpoint: median tumor weight (est.), dose: 50.0 mg/kg/injection, schedule: Q07DX005 (ip), vehicle: other) 114 % of control; (endpoint: median tumor weight (est.), dose: 100.0 mg/kg/injection, schedule: Q07DX005 (ip), vehicle: other) 98 % of control; (endpoint: median tumor weight (est.), dose: 400.0 mg/kg/injection, schedule: Q07DX005 (ip), vehicle: other) 49 % of control.
As for `Nc1n[n+](-c2ccc(Cl)cc2)no1`, the T/C is, setting by setting: (endpoint: median tumor weight (est.), dose: 6.25 mg/kg/injection, schedule: Q07DX005 (ip), vehicle: water) 184 % of control; (endpoint: median tumor weight (est.), dose: 12.5 mg/kg/injection, schedule: Q07DX005 (ip), vehicle: water) 103 % of control; (endpoint: median tumor weight (est.), dose: 25.0 mg/kg/injection, schedule: Q07DX005 (ip), vehicle: water) 88 % of control.
